Reference: patent publication US20140148446A1, “COMPOUNDS THAT ENABLE ALTERNATIVE MITOCHONDRIAL ELECTRON TRANSFER” (University of North Texas Health Science Center, priority 2010, published 2014)

Columns and labels:
[1] = system: mitochondrial complex I-III; format: biochemical, rat
Procedure: Fresh rat heart was removed and placed in ice-cold mitochondrial isolation buffer containing 210 mM mannitol, 70 mM sucrose, 5 mM HEPES, and 1 mM EDTA, pH 7. The heart was homogenized immediately, and the mitochondrial fraction was isolated by differential centrifugation as described previously (Trounce et al., 1996). Mitochondria were stored at −80° C. until subsequent analysis.
All mitochondrial activity assays were performed according to previous publications with minimal modifications for complex I (Lenaz et al., 2004), complex I-III, complex II, complex III, and II-III (Trounce et al., 1996). […] Complex I activity was monitored by adding NADH to the mix with or without rotenone/antimycin A. The final data were normalized to blank values at time zero. The reaction was monitored in a kinetic spectrophotometer at 340 nm. Complex I activity was measured in arbitrary units and normalized to control levels for statistical analysis. Isolated mitochondria equivalent to 40-200 μg mitochondrial protein was used for each assay, except for assays with inhibitors, when larger amount of mitochondria (3 to 5 folds) were used to ensure that inhibition was distinguishable. Final data were normalized to control levels. For complex I-III activity, the reaction was initiated with the addition of NADH, cyt c was used as final substrate and its reduction was monitored at 550 nm. For assay of complex II-III activity, succinate was added instead of NADH, and the electron transfer to cyt c was performed according to previous publications (Atamna et al., 2008). To test whether the electrons from the reduced form of MB (MBH2) can be transferred to cyt c in mitochondrial lysate, we added 10 μM 2,7-dichlorofluorescin (DCFH, Invitrogen, Carlsbad, Calif.) to the reaction system. Free radicals convert non-fluorescent DCFH to highly fluorescent DCF (Ex, 488 nm, and Em, 530 nm). In the presence of cyt c, which accepts electrons from MBH2, conversion of DCFH to DCF is decreased.

[2] = system: rotenone induced rat model of PD; experiment: Rotenone model of PD: body weight, neurological and behavioral assessment; format: in vivo; conditions: MB 500 μg/kg/day i.p.
Procedure: The accelerating rotarod, a motor driven treadmill (Omnitech Electronics, Columbus, Ohio) measures running coordination and motor performance. The rotor consisted of a nylon cylinder with a 7 cm diameter mounted horizontally 35.5 cm above a padded surface. On a given trial, the rats were placed on the cylinder, the cylinder was rotated, and a timer switch was simultaneously activated. Acceleration continued from 0 to a maximum of 44 rpm until animals were unable to stay on top of the rotating rod and fell to the padded surface. […] When the rat landed on the surface, a photosensitive switch was tripped and the timer stopped. Rats were subjected to this test two sessions a day, three trials per session, for 7 sessions. A 20-minute resting period was given between each trial. Animals were given at least two hours break time between sessions each day. Retention times on the rotating treadmill were recorded and plotted for analysis.
Neurological assessment was performed by three evaluators blind to treatment conditions. The evaluators were initially trained until they produced consistent scores when evaluating rats in these tests. Subsequently, experimental subjects were randomized and presented to the evaluators individually. For each session, which consisted of three trials, an individual evaluator scored a rat in only one trial; thus, the final score for a session for each animal was the average score of the three evaluators. The category included: tremor; locomotion; bradykinesia; hypokinesia; posture; and gross motor skills.
Catalepsy was measured by standard bar test and grid test adapted from previous publication. For bar test, the rats were placed with both front paws grasp on a horizontal bar which was 9 cm above the surface. The time, each animal took to remove one paw from the bar was manually measured by a stopwatch. For grid test, rats were placed on a vertical wire grid (25.5 cm width and 44 cm high with a space of 1 cm between each wire) and catalepsy was determined by the length of time the animals maintained all four paws on the grid using a stopwatch. The maximum descent latency was set at 300 seconds for the bar test and 60 seconds for grid test.
For gait analysis, the fore and hind paws of each rat were painted with blue and red dye, respectively. The animals were allowed to walk across an absorbent paper covered straight alley runway (150 cm long, 20 cm wide, opaque walls 20 cm tall) into a dark compartment. Before the test, animals were put in the dark compartment for 2 minutes to habituate to the environment and 3 pre-training runs were conducted for all rats. Three trials were conducted to obtain clear footprints for each animal. Prolonged stop or turning backward in the runway was considered failed trials. The distance of individual steps were analyzed by two independent blinded observers.

[3] = system: rotenone induced rat model of PD; experiment: Rotenone model of PD: striatal monoamines, brain complex I-III activity and total ROS; format: in vivo
Procedure: All mitochondrial activity assays were performed according to previous publications with minimal modifications for complex I (Lenaz et al., 2004), complex I-III, complex II, complex III, and II-III (Trounce et al., 1996). All assays used a similar master mix that contained potassium phosphate pH 7.4 (50 mM), BSA 2.5mg/ml, MgCl2 5 mM, KCN (2 mM), and various inhibitors or substrates, including rotenone (6 μM), antimycin A (2 μM), NADH (150 μM), CoQ1 (60 μM), cyt c (50 μM), succinate (8 mM), and DBH2 (100 μM). Complex I activity was monitored by adding NADH to the mix with or without rotenone/antimycin A. The final data were normalized to blank values at time zero. The reaction was monitored in a kinetic spectrophotometer at 340 nm. Complex I activity was measured in arbitrary units and normalized to control levels for statistical analysis. Isolated mitochondria equivalent to 40-200 μg mitochondrial protein was used for each assay, except for assays with inhibitors, when larger amount of mitochondria (3 to 5 folds) were used to ensure that inhibition was distinguishable. Final data were normalized to control levels. For complex I-III activity, the reaction was initiated with the addition of NADH, cyt c was used as final substrate and its reduction was monitored at 550 nm. For assay of complex II-III activity, succinate was added instead of NADH, and the electron transfer to cyt c was performed according to previous publications (Atamna et al., 2008). To test whether the electrons from the reduced form of MB (MBH2) can be transferred to cyt c in mitochondrial lysate, we added 10 μM 2,7-dichlorofluorescin (DCFH, Invitrogen, Carlsbad, Calif.) to the reaction system. Free radicals convert non-fluorescent DCFH to highly fluorescent DCF (Ex, 488 nm, and Em, 530 nm). In the presence of cyt c, which accepts electrons from MBH2, conversion of DCFH to DCF is decreased.
Rats were assigned to three groups: control animals received vehicle infusion and daily saline injection (Veh/Sal N=6-8); a second group received rotenone infusion at the dose of 5 mg/kg/day and daily saline injection (ROT/Saline N=8-11); and the third group received rotenone infusion (5 mg/kg/day) and MB injection at the dose of 500 μg/kg/day (ROT/MB N=8-10). Vehicle or rotenone was infused via Alzet osmotic mini pumps that were filled with vehicle or rotenone dissolved in vehicle (equal volumes of dimethylsulfoxide and polyethylene glycol). Pumps containing vehicle or rotenone were sterilized with UV irradiation and implanted subcutaneously on the back. Intraperitoneal injections were administered with normal saline or MB, 500 μg/kg/day, diluted in normal saline to 500 μl of final volume. Rats were sacrificed on day 8 at four hours after last dose of MB or saline treatment.
After completion of neurological assessments and behavioral tests, rats were killed on the 8th day of rotenone infusion under anesthesia induced by xylazine (20 mg/kg, i.p.) and ketamine (100 mg/kg, i.p.). All osmotic pumps were checked for the residual liquid to ensure proper drug delivery. One hemisphere was fixed by 4% paraformaldehyde in phosphate buffer for 48 hr until processing for sectioning. The other hemisphere was snap-frozen in liquid nitrogen, and kept at −80° C. until extraction for biochemical analysis. Striatum dissected from a separate set of animals were used for analysis of monoamines by HPLC. […]

[4] = system: transient MCA occlusion in rats; experiment: Transient focal cerebral ischemia (MCA occlusion); format: in vivo; conditions: rat, single dosage of MB at 500 μg/kg, 24 hr after reperfusion
From the text: Transient focal cerebral ischemia was induced by intraluminal filament MCA occlusion (Liu et al., 2005). Briefly, the left internal carotid artery (ICA) was exposed, and a 3-0 monofilament nylon suture was introduced into the ICA lumen through a puncture and gently advanced to the distal ICA until proper resistance was felt. After 1 hr, the suture was withdrawn for reperfusion. At 24 hr after reperfusion, the animals were sacrificed and the brain harvested. The brains were sectioned at 3, 5, 7, 9, 11, 13 and 15 mm posterior to the olfactory bulb. Each slice was incubated 30 min in 2% 2,3,5-triphenyltetrazolium chloride (TTC) in physiological saline, then fixed in 10% formalin. The stained slices were digitally photographed for measurement of ischemic lesion volume (Image-Pro Plus 4.1).

FRDA fibroblast = experiment: BSO induced FRDA fibroblast cell death; format: cell-based
[5] = pH 7.0; cited from earlier work

SMILES: CN(C)c1ccc2nc3ccc(=[N+](C)C)cc-3sc2c1 [methylene blue]
- Complex I-III activity, % of the control level ([1]; 1 μg/ml MB, in the presence of antimycin A): 674±99%
- Complex I-III activity, % of control ([1]; 1 μg/ml MB, in the presence of rotenone): 118.1±6.4%
- Increase of complex I-III activity ([1]; increasing doses of MB (0.1-1 μg/ml)): up to nine-fold increase
- Catalepsy, bar test descent latency [2]: completely reversed
- Catalepsy, grid test latency to fall [2]: attenuated
- Neurological scores (randomized blinded assessment) [2]: significantly improved
- Rotarod performance deficits [2]: almost completely prevented
- Rotenone induced body weight loss [2]: attenuated
- Stride length in gait analysis [2]: improved
- Decrease of complex I-III activity in brain extracts ([3]; MB 500 μg/kg/day i.p.): prevented
- Overall ROS in brain extracts ([3]; MB 500 μg/kg/day i.p.): attenuated in the ROT/MB group to basal level
- Striatum L-DOPAC depletion ([3]; MB 500 μg/kg/day i.p.): almost completely rescued
- Striatum dopamine depletion ([3]; MB 500 μg/kg/day i.p.): almost completely rescued
- Striatum 5-HT levels ([3]; all three groups): no significant differences
- Ischemic lesion volume [4]: significantly reduced
- Damaging effects of BSO (cell death) (FRDA fibroblast): greatly ameliorates
- Redox potential [5]: 11 mV
